Measured values from patent EP0522944A2, “Use of 3-(3-pyridinyl)-1H,3H-pyrrolo(1,2-c)thiazole-7-carboxamide for the treatment of retroviral infections” (RHONE-POULENC RORER S.A., priority 1991, dated 1993).

Assays:
Type in all cases: cell-based
cellules U1 = assay: Viability of the U1 cells in presence of the product; settings: whatever the concentration used (0,1 to 100 µM)
Procedure: (§1) Les cultures cellulaires sont prélévées en phase de croissance exponantielle et remises en culture à raison d'une concentration finale de 2x105 cellules/ml, en présence de différentes concentrations du produit à étudier. 30 minutes après, l'ensemble des cultures est additionné de TNFa ou de GM-CSF (Granulocyte Macrophage Colony Stimulating Factor) plus 11-6 (Interleukine-6). Chaque essai est fait en double, excepté les contrôles qui sont faits en quadruple. Chaque jour suivant, une fraction de surnageant des cultures est prélevée, et congelée en vue de la mesure de la reverse transcriptase. Les cellules sont nourries si nécessaire, avec du milieu frais ne contenant ni produit à étudier, ni activateur.

virus HIV-1 [1] = assay: Duration of action: pretreatment of U1 cells with the product before stimulation by TNF, PMA or GM-CSF + IL-6, reverse transcriptase production (second series)
From the text: (§2) On utilise des lignées cellulaires U1 obtenues après infection de la lignée promonocytaire, U937, par le virus HIV-1 et sélectionnée le selon la capacité à augmenter la production virale en réponse au Phorbol My- ristate Acétate (PMA), au TNF et à d'autres médiateurs [Folks et al., Science, 238, 800 (1987)]. L'activité de la reverse transcriptase est utilisée comme un indicateur de la production virale. On analyse ainsi l'effet de concentrations croissantes du produit à étudier sur des lignées cellulaires stimulées.
as §1, with “30 minutes après, l'ensemble des cultures est additionné de TNFa ou de GM-CSF (Granulocyte Macrophage Colony Stimulating Factor) plus 11-6 (Interleukine-6).” left out
(§3) La mesure de l'activité de la reverse transcriptase est faite par les techniques connues, en double exemplaire [Strebel et al., Nature, 328, 728 (1987)].
Dans une seconde série d'essais, la durée d'action du (+) (pyridyl-3)-3 1H,3H-pyrrolo[1,2-c]thiazolecarboxamide-7 a été testée.

virus HIV-1 [2] = assay: Reverse transcriptase activity as indicator of viral production in chronically HIV-1 infected U1 cells stimulated with TNFa or GM-CSF + IL-6 (first series)
From the text: Les effets du (+) (pyridyl-3)-3 1H,3H-pyrrolo[1,2-c] thiazolecarboxamide-7 sur l'induction du virus HIV-1 ont été étudiés sur des lignées cellulaires chroniquement infectées.
as §2, §1, §3
Le (+) (pyridyl-3)-3 1 H,3H-pyrrolo[1,2-c]thiazole carboxamide-7 est étudié aux concentrations de 100, 10, 1 et 0,1 µM.
Le TNFa est additionné à raison de 100, 10 ou 1 Unités/ml. Le GM-CSF + 11-6 est additionné à raison de 100 U/mi. Certains contrôles ne recoivent pas l'activateur. D'autres contrôles ne reçoivent pas le produit à étudier. D'autres ne reçoivent ni le produit ni l'activateur.

NC(=O)c1ccn2c1CSC2c1cccnc1 (single isomer, unassigned; (+)) [produit, (+) (pyridyl-3)-3 1H,3H-pyrrolo[1,2-c]thiazole carboxamide-7]
viabilité des cellules (cellules U1): sans effet
Production de Reverse Transcriptase Coups par minute (cpm) (virus HIV-1 [1]; Tableau I, U1 cells + product 100µM, no stimulation, contact time 0,5 h): <100 cpm
Production de Reverse Transcriptase Coups par minute (cpm) (virus HIV-1 [1]; Tableau I, U1 cells + product 100µM, no stimulation, contact time 2 h): <100 cpm
Production de Reverse Transcriptase Coups par minute (cpm) (virus HIV-1 [1]; Tableau I, U1 cells + product 100µM, no stimulation, contact time 7 h): <100 cpm
Production de Reverse Transcriptase Coups par minute (cpm) (virus HIV-1 [1]; Tableau I, U1 cells + product 100µM, no stimulation, contact time 10 h): <100 cpm
Production de Reverse Transcriptase Coups par minute (cpm) (virus HIV-1 [1]; Tableau II, U1 cells + product 100µM, no stimulation, contact time 0,5 h): env.100 cpm
Production de Reverse Transcriptase Coups par minute (cpm) (virus HIV-1 [1]; Tableau II, U1 cells + product 100µM, no stimulation, contact time 2 h): env.100 cpm
Production de Reverse Transcriptase Coups par minute (cpm) (virus HIV-1 [1]; Tableau II, U1 cells + product 100µM, no stimulation, contact time 7 h): env.100 cpm
Production de Reverse Transcriptase Coups par minute (cpm) (virus HIV-1 [1]; Tableau II, U1 cells + product 100µM, no stimulation, contact time 10 h): <100 cpm
Production de Reverse Transcriptase Coups par minute (cpm) (virus HIV-1 [1]; Tableau III, U1 cells + product 100µM, no stimulation, contact time 0,5 h): 180 cpm
Production de Reverse Transcriptase Coups par minute (cpm) (virus HIV-1 [1]; Tableau III, U1 cells + product 100µM, no stimulation, contact time 2 h): 150 cpm
Production de Reverse Transcriptase Coups par minute (cpm) (virus HIV-1 [1]; Tableau III, U1 cells + product 100µM, no stimulation, contact time 7 h): 180 cpm
Production de Reverse Transcriptase Coups par minute (cpm) (virus HIV-1 [1]; Tableau III, U1 cells + product 100µM, no stimulation, contact time 10 h): 160 cpm
Production de Reverse Transcriptase Coups par minute (cpm) (virus HIV-1 [1]; U1 cells + product 100µM + GM-CSF (100U) + IL6 (100U), contact time before stimulation 0,5 h): 200 cpm
Production de Reverse Transcriptase Coups par minute (cpm) (virus HIV-1 [1]; U1 cells + product 100µM + GM-CSF (100U) + IL6 (100U), contact time before stimulation 2 h): 180 cpm
Production de Reverse Transcriptase Coups par minute (cpm) (virus HIV-1 [1]; U1 cells + product 100µM + GM-CSF (100U) + IL6 (100U), contact time before stimulation 7 h): 170 cpm
Production de Reverse Transcriptase Coups par minute (cpm) (virus HIV-1 [1]; U1 cells + product 100µM + GM-CSF (100U) + IL6 (100U), contact time before stimulation 10 h): 180 cpm
Production de Reverse Transcriptase Coups par minute (cpm) (virus HIV-1 [1]; U1 cells + product 100µM + PMA (10^-7), contact time before stimulation 0,5 h): 4700 cpm
Production de Reverse Transcriptase Coups par minute (cpm) (virus HIV-1 [1]; U1 cells + product 100µM + PMA (10^-7), contact time before stimulation 2 h): 1900 cpm
Production de Reverse Transcriptase Coups par minute (cpm) (virus HIV-1 [1]; U1 cells + product 100µM + PMA (10^-7), contact time before stimulation 7 h): 1900 cpm
Production de Reverse Transcriptase Coups par minute (cpm) (virus HIV-1 [1]; U1 cells + product 100µM + PMA (10^-7), contact time before stimulation 10 h): 900 cpm
Production de Reverse Transcriptase Coups par minute (cpm) (virus HIV-1 [1]; U1 cells + product 100µM + TNFα(100U), contact time before stimulation 0,5 h): 300 cpm
Production de Reverse Transcriptase Coups par minute (cpm) (virus HIV-1 [1]; U1 cells + product 100µM + TNFα(100U), contact time before stimulation 2 h): 200 cpm
Production de Reverse Transcriptase Coups par minute (cpm) (virus HIV-1 [1]; U1 cells + product 100µM + TNFα(100U), contact time before stimulation 7 h): 180 cpm
Production de Reverse Transcriptase Coups par minute (cpm) (virus HIV-1 [1]; U1 cells + product 100µM + TNFα(100U), contact time before stimulation 10 h): env.100 cpm
effet inhibiteur de la réplication du HIV-1 (virus HIV-1 [1]; pretreatment 30 minutes to 24 heures before stimulation by TNF, PMA or GM-CSF + II-6): n'affecte pas l'effet inhibiteur
inhibition at 100 µM (virus HIV-1 [2]; Human immunodeficiency virus 1, 72 h, U1 cells, 100 Unités/ml TNFa, day 3, product 10-^4M, read-out: diminution de l'activité de la reverse transcriptase): 84%
inhibition at 10 µM (virus HIV-1 [2]; Human immunodeficiency virus 1, 72 h, U1 cells, 100 Unités/ml TNFa, day 3, product 10^-5M, read-out: diminution de l'activité de la reverse transcriptase): 50%
diminution de la production virale (virus HIV-1 [2]; U1 cells treated with TNFa): significative et dose-dépendante
action inhibitrice du HIV-1 dans les cellules U1 (virus HIV-1 [2]; stimulated by GM-CSF + II-6): significative
